From patent publication US20260028326A1, “COMPOUND BASED ON ISOINDOLINE-SUBSTITUTED GLUTARIMIDE BACKBONE AND USE THEREOF” (GLUETACS THERAPEUTICS (SHANGHAI) CO., LTD., priority 2022, published 2026)

biological target: human Cereblon WT GST-tagged protein (Homo sapiens (Human), UniProt Q96SW2); experiment: CRBN-binding affinity, HTRF (CEREBLON BINDING kit)
Description: The CEREBLON BINDING kits (specification: 10,000 tests; product number: Catalog #64BDCRBNPEH; CISBIO company) was used to determine the CRBN binding ability of the compounds to be tested through a HTRF method (homogeneous time-resolved fluorescence). The specific methods are as follows: • 1. […] Then, 2.5 μL of human Cereblon WT GST-tagged protein solution was added to each well. Finally, 5 μL of the thoroughly mixed Thalidomide-Re reagent and GST Eu antibody working solution were added to each of the aforementioned wells. […] The blank control wells were sequentially added with 2.5 μL of diluent #9 (1×) solution, 2.5 μL of PROTAC binding buffer, and 5 μL of thoroughly mixed Thalidomide-Re reagent and GST Eu antibody working solution. • 4.
The corresponding CRBN binding inhibition rate was calculated using the following method: […]

Chain of human Cereblon WT GST-tagged protein (Q96SW2 whole entry): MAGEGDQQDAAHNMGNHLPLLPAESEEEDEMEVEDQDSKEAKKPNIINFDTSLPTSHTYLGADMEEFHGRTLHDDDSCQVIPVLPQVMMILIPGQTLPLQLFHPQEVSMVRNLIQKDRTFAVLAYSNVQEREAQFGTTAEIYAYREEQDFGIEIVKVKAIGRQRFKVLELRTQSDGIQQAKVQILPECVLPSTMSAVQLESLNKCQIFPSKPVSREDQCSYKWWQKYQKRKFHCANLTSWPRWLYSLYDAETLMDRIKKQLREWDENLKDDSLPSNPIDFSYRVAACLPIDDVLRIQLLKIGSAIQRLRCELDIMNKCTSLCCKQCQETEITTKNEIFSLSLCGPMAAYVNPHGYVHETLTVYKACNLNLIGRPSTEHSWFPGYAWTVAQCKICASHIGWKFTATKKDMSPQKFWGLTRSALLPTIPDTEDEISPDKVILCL

Structure (SMILES) | IC50
CC1(C)CCC(CN2C3CCC2CN(C(=O)c2ccc4c(c2)CN(C2CCC(=O)NC2=O)C4=O)C3)=C(c2ccc(F)cc2)C1 (stereo not shown) [GT-05511, 3-(5-(8-((4′-fluoro-5,5-dimethyl-3,4,5,6-tetrahydro-[1,1′-biphenyl]-2-yl)methyl)-3,8-diazabicyclo[3.2.1]octane-3-carbonyl)-1-oxoisoindolin-2-yl)piperidine-2,6-dione] | 1950 nM
O=C1CCC(N2Cc3c(ccc(CN4C5CC4CN(C(=O)C4=C(c6ccc(F)cc6)CCCC4)C5)c3F)C2=O)C(=O)N1 (stereo not shown) [GT-05475, 3-(4-fluoro-5-((3-(4′-fluoro-3,4,5,6-tetrahydro-[1,1′-biphenyl]-2-carbonyl)-3,6-diazabicyclo[3.1.1]heptan-6-yl)methyl)-1-oxoisoindolin-2-yl)piperidine-2,6-dione] | 910 nM
O=C1CCC(N2Cc3c(ccc(CN4C5CC4CN(C(=O)c4ccccc4-c4ccc(Cl)cc4)C5)c3F)C2=O)C(=O)N1 (stereo not shown) [GT-05666, 3-(5-((3-(4′-chloro-[1,1′-biphenyl]-2-carbonyl)-3,6-diazabicyclo[3.1.1]heptan-6-yl)methyl)-4-fluoro-1-oxoisoindolin-2-yl)piperidine-2,6-dione] | 690 nM
CC1(C)CCC(CN2C3CC2CN(Cc2ccc4c(c2)CN(C2CCC(=O)NC2=O)C4=O)C3)=C(c2ccc(Cl)cc2)C1 (stereo not shown) [GT-03995, 3-(5-((6-((4′-chloro-5,5-dimethyl-3,4,5,6-tetrahydro-[1,1′-biphenyl]-2-yl)methyl)-3,6-diazabicyclo[3.1.1]heptan-3-yl)methyl)-1-oxoisoindolin-2-yl)piperidine-2,6-dione] | 630 nM
O=C1CCC(N2Cc3c(CN4CCN(Cc5ccccc5-c5ccc(F)cc5)CC4)cccc3C2=O)C(=O)N1 (stereo not shown) [GT-05605, 3-(4-((4-((4′-fluoro-[1,1′-biphenyl]-2-yl)methyl)piperazin-1-yl)methyl)-1-oxoisoindolin-2-yl)piperidine-2,6-dione] | 1050 nM
CC1(C)CCC(CN2C3CCC2CN(c2ccc4c(c2)CN(C2CCC(=O)NC2=O)C4=O)C3)=C(c2ccc(Cl)cc2)C1 (stereo not shown) [GT-05429, 3-(5-(8-((4′-chloro-5,5-dimethyl-3,4,5,6-tetrahydro-[1,1′-biphenyl]-2-yl)methyl)-3,8-diazabicyclo[3.2.1]octan-3-yl)-1-oxoisoindolin-2-yl)piperidine-2,6-dione] | 1490 nM
O=C1CCC(N2Cc3cc(C(=O)N4CCN(C(=O)C5=C(c6ccc(F)cc6)CCCC5)CC4)ccc3C2=O)C(=O)N1 (stereo not shown) [GT-05448, 3-(5-(4-(4′-fluoro-3,4,5,6-tetrahydro-[1,1′-biphenyl]-2-carbonyl)piperazine-1-carbonyl)-1-oxoisoindolin-2-yl)piperidine-2,6-dione] | 1390 nM
CC1(C)CCC(CN2CC3CCC(C2)N3Cc2ccc3c(c2)CN(C2CCC(=O)NC2=O)C3=O)=C(c2ccc(Cl)cc2)C1 (stereo not shown) [GT-03889, 3-(5-((3-((4′-chloro-5,5-dimethyl-3,4,5,6-tetrahydro-[1,1′-biphenyl]-2-yl)methyl)-3,8-diazabicyclo[3.2.1]octan-8-yl)methyl)-1-oxoisoindolin-2-yl)piperidine-2,6-dione] | 710 nM
CC1(C)CCC(C(=O)N2CCN(Cc3ccc4c(c3F)CN(C3CCC(=O)NC3=O)C4=O)CC2)=C(c2ccc(Cl)cc2)C1 (stereo not shown) [GT-05525, 3-(5-((4-(4′-chloro-5,5-dimethyl-3,4,5,6-tetrahydro-[1,1′-biphenyl]-2-carbonyl)piperazin-1-yl)methyl)-4-fluoro-1-oxoisoindolin-2-yl)piperidine-2,6-dione] | 710 nM
CC1(C)CCC(CN2CC3CCC2CN3Cc2cc(F)c3c(c2)CN(C2CCC(=O)NC2=O)C3=O)=C(c2ccc(Cl)cc2)C1 (stereo not shown) [GT-05781, 3-(5-((5-((4′-chloro-5,5-dimethyl-3,4,5,6-tetrahydro-[1,1′-biphenyl]-2-yl)methyl)-2,5-diazabicyclo[2.2.2]octan-2-yl)methyl)-7-fluoro-1-oxoisoindolin-2-yl)piperidine-2,6-dione] | 710 nM
O=C1CCC(N2Cc3cc(CN4C5CC4CN(Cc4ccccc4-c4ccc(Cl)cc4)C5)cc(F)c3C2=O)C(=O)N1 (stereo not shown) [GT-05610, 3-(5-((3-((4′-chloro-[1,1′-biphenyl]-2-yl)methyl)-3,6-diazabicyclo[3.1.1]heptan-6-yl)methyl)-7-fluoro-1-oxoisoindolin-2-yl)piperidine-2,6-dione] | 640 nM
CC1(C)CCC(CN2C3CC2CN(Cc2ccc4c(c2)CN(C2CCC(=O)NC2=O)C4=O)C3)=C(c2ccc(F)cc2)C1 (stereo not shown) [GT-05509, 3-(5-((6-((4′-fluoro-5,5-dimethyl-3,4,5,6-tetrahydro-[1,1′-biphenyl]-2-yl)methyl)-3,6-diazabicyclo[3.1.1]heptan-3-yl)methyl)-1-oxoisoindolin-2-yl)piperidine-2,6-dione] | 250 nM
O=C1CCC(N2Cc3ccc(CN4CCN(C(=O)C5=C(c6ccc(F)cc6)CCCC5)CC4)cc3C2=O)C(=O)N1 (stereo not shown) [GT-05470, 3-(6-((4-(4′-fluoro-3,4,5,6-tetrahydro-[1,1′-biphenyl]-2-carbonyl)piperazin-1-yl)methyl)-1-oxoisoindolin-2-yl)piperidine-2,6-dione] | 980 nM
CC1(C)CCC(C(=O)N2CC3CC2CN3Cc2ccc3c(c2)CN(C2CCC(=O)NC2=O)C3=O)=C(c2ccc(Cl)cc2)C1 (stereo not shown) [GT-05524, 3-(5-((5-(4′-chloro-5,5-dimethyl-3,4,5,6-tetrahydro-[1,1′-biphenyl]-2-carbonyl)-2,5-diazabicyclo[2.2.1]heptan-2-yl)methyl)-1-oxoisoindolin-2-yl)piperidine-2,6-dione] | 490 nM
CC1(C)CCC(CN2C3CCC2CN(Cc2cc4c(cc2F)C(=O)N(C2CCC(=O)NC2=O)C4)C3)=C(c2ccc(Cl)cc2)C1 (stereo not shown) [GT-05535, 3-(5-((8-((4′-chloro-5,5-dimethyl-3,4,5,6-tetrahydro-[1,1′-biphenyl]-2-yl)methyl)-3,8-diazabicyclo[3.2.1]octan-3-yl)methyl)-6-fluoro-1-oxoisoindolin-2-yl)piperidine-2,6-dione] | 1790 nM
CC1(C)CC(c2ccc(Cl)cc2)=C(CN2CCN(C(=O)c3ccc4c(c3)CN(C3CCC(=O)NC3=O)C4=O)CC2)CO1 (stereo not shown) [GT-05673, 3-(5-(4-((4-(4-chlorophenyl)-6,6-dimethyl-5,6-dihydro-2H-pyran-3-yl)methyl)piperazine-1-carbonyl)-1-oxoisoindolin-2-yl)piperidine-2,6-dione] | 1140 nM
CC1(C)CCC(C(=O)N2CCC(Nc3ccc4c(c3)CN(C3CCC(=O)NC3=O)C4=O)CC2)=C(c2ccc(F)cc2)C1 (stereo not shown) [GT-05786, 3-(5-((1-(4′-fluoro-5,5-dimethyl-3,4,5,6-tetrahydro-[1,1′-biphenyl]-2-carbonyl)piperidin-4-yl)amino)-1-oxoisoindolin-2-yl)piperidine-2,6-dione] | 1070 nM
CC1(C)CCC(C(=O)N2CC3CCC(C2)N3Cc2ccc3c(c2)CN(C2CCC(=O)NC2=O)C3=O)=C(c2ccc(F)cc2)C1 (stereo not shown) [GT-05516, 3-(5-((3-(4′-fluoro-5,5-dimethyl-3,4,5,6-tetrahydro-[1,1′-biphenyl]-2-carbonyl)-3,8-diazabicyclo[3.2.1]octan-8-yl)methyl)-1-oxoisoindolin-2-yl)piperidine-2,6-dione] | 600 nM
O=C1CCC(N2Cc3cc(CN4CC5CCC(C4)N5Cc4ccccc4-c4ccc(Cl)cc4)ccc3C2=O)C(=O)N1 (stereo not shown) [GT-05618, 3-(5-((8-((4′-chloro-[1,1′-biphenyl]-2-yl)methyl)-3,8-diazabicyclo[3.2.1]octan-3-yl)methyl)-1-oxoisoindolin-2-yl)piperidine-2,6-dione] | 580 nM
O=C1CCC(N2Cc3ccc(CN4CCN(Cc5ccccc5-c5ccc(F)cc5)CC4)cc3C2=O)C(=O)N1 (stereo not shown) [GT-05606, 3-(6-((4-((4′-fluoro-[1,1′-biphenyl]-2-yl)methyl)piperazin-1-yl)methyl)-1-oxoisoindolin-2-yl)piperidine-2,6-dione] | 1180 nM
CC1(C)CCC(C(=O)N2C3CCC2CN(C(=O)c2ccc4c(c2)CN(C2CCC(=O)NC2=O)C4=O)C3)=C(c2ccc(Cl)cc2)C1 (stereo not shown) [GT-05540, 3-(5-(8-(4′-chloro-5,5-dimethyl-3,4,5,6-tetrahydro-[1,1′-biphenyl]-2-carbonyl)-3,8-diazabicyclo[3.2.1]octane-3-carbonyl)-1-oxoisoindolin-2-yl)piperidine-2,6-dione] | 960 nM
CC1(C)CCC(C(=O)N2CC(=Cc3ccc4c(c3)CN(C3CCC(=O)NC3=O)C4=O)C2)=C(c2ccc(F)cc2)C1 (stereo not shown) [GT-05489, 3-(5-((1-(4′-fluoro-5,5-dimethyl-3,4,5,6-tetrahydro-[1,1′-biphenyl]-2-carbonyl)azetidin-3-ylidene)methyl)-1-oxoisoindolin-2-yl)piperidine-2,6-dione] | 610 nM
CC1(C)CCC(C(=O)N2CCC(Nc3ccc4c(c3)CN(C3CCC(=O)NC3=O)C4=O)CC2)=C(c2ccc(Cl)cc2)C1 (stereo not shown) [GT-05783, 3-(5-((1-(4′-chloro-5,5-dimethyl-3,4,5,6-tetrahydro-[1,1′-biphenyl]-2-carbonyl)piperidin-4-yl)amino)-1-oxoisoindolin-2-yl)piperidine-2,6-dione] | 940 nM
O=C1CCC(N2Cc3cc(C(=O)N4C5CCC4CN(Cc4ccccc4-c4ccc(Cl)cc4)C5)ccc3C2=O)C(=O)N1 (stereo not shown) [GT-05638, 3-(5-(3-((4′-chloro-[1,1′-biphenyl]-2-yl)methyl)-3,8-diazabicyclo[3.2.1]octane-8-carbonyl)-1-oxoisoindolin-2-yl)piperidine-2,6-dione] | 1210 nM
O=C1CCC(N2Cc3cc(C(=O)N4CC5CC4CN5Cc4ccccc4-c4ccc(Cl)cc4)ccc3C2=O)C(=O)N1 (stereo not shown) [GT-05639, 3-(5-(5-((4′-chloro-[1,1′-biphenyl]-2-yl)methyl)-2,5-diazabicyclo[2.2.1]heptane-2-carbonyl)-1-oxoisoindolin-2-yl)piperidine-2,6-dione] | 780 nM
